Source: US20220079876A1, “OCULAR IMPLANT CONTAINING A TYROSINE KINASE INHIBITOR” (Ocular Therapeutix, Inc., priority 2020, published 2022)
≈ marks a conversion by molar mass, not a printed value. One block for each compound: values may come before it.

Experiments:
[1] = Rugo et al. 2005; cited from earlier work
[2] = In vitro axitinib release under non-sink simulated physiological conditions; assay type: physicochemical; conditions: pH 7.2, aqueous buffer, thermodynamic from solid; PBS from control implant release after 20 or 30 days at 37° C.
Description: Three exemplarily selected implant formulations were examined (Table 1). Implant variants #1 and 2 were examined using one implant, implant variant #3 using one and two implants (four conditions in total). All conditions were conducted in duplicate.
In vitro released and non-released axitinib was determined for each group without (control) and with daily release media sampling.
For control implant release, samples were placed in tubes. Five mL of PBS (pH 7.2) were added to each tube on day 0 and the tubes were covered with a lid. Samples were then placed in a 37° C. incubator and gently rocked for 20 (1× implant #3) or 30 days (implant #1 and #2, 2× implant #3). At the end of the test period, the PBS was removed (1 mL PBS was saved for testing). One mL of ethanol was added to the residual sample. Both PBS samples and residual samples were tested for axitinib amount released.
For daily implant release, samples were placed in tubes. Five mL of PBS were added to each tube on day 0 and the tubes were covered with a lid. Samples were then placed in a 37° C. incubator and rocked gently. After 24 hours, 4 mL of PBS were removed from each sample from which 1 mL was used for testing and the remaining 3 mL were disposed. Four mL of fresh PBS were added back into each tube. This process was repeated for 20 (1× implant #3) or 30 days (implant #1 and #2, 2× implant #3). […]

[3] = 1.25 mg intravitreal dose (Sinapis et al., 2011); cited from earlier work
[4] = test system: VEGF-induced vascular leakage; assay: VEGF challenge, vascular leakage scored by fluorescein angiography; assay type: in vivo, Dutch belted rabbits; conditions: rabbit; 1.25 mg Avastin intravitreal only (group 3)
[5] = in vivo; cited from earlier work

solubility [2]: 0.24 to 0.4 µg/mL (≈ 0.621 to 1.03 µM)
Compound: CNC(=O)c1ccccc1Sc1ccc2c(/C=C/c3ccccn3)n[nH]c2c1 [axitinib, N-methyl-2-[3-((E)-2-pyridin-2-yl-vinyl)-1H-indazol-6-ylsulfanyl]-benzamide]
Clearance half-life (t1/2) [1]: a few hours

Compound: Avastin®: anti-VEGF therapeutic
Half-life in rabbits [3]: 158 h
Duration of effect post injection [4]: ≤ 3 months
Vascular leakage after VEGF challenge, after 3 months [4]: vascular leakage re-occurred

Compound: aflibercept: anti-VEGF agent, aflibercept injection by Regeneron
t1/2 in the human eye [5]: several days

Compound: ranibizumab: anti-VEGF agent, ranibizumab injection by Genentech
t1/2 in the human eye [5]: several days
